Source: PubChem BioAssay (NCI)
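Briefly, cells in 96-well plates were exposed to five compound concentrations for 48 h, and endpoints were estimated by linear interpolation. The concentration for 50% growth inhibition is given as GI50. TGI: total growth inhibition.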

What was measured:
Assay in all cases: NCI tumour cell line growth inhibition, 48 h
KM12 colon = tested on: KM12 colon
HOP-92 NSCLC = tested on: HOP-92 NSCLC
HT29 colon = tested on: HT29 colon
SK-MEL-5 melanoma = tested on: SK-MEL-5 melanoma
HCC-2998 colon = tested on: HCC-2998 colon
MALME-3M melanoma = tested on: MALME-3M melanoma
SW-620 colon = tested on: SW-620 colon
ACHN renal = tested on: ACHN renal
BT-549 breast = tested on: BT-549 breast
MDA-MB-231 breast = tested on: MDA-MB-231 breast
U251 CNS = tested on: U251 CNS
SK-MEL-28 melanoma = tested on: SK-MEL-28 melanoma
NCI-H522 lung = tested on: NCI-H522 lung
SF-539 CNS = tested on: SF-539 CNS
NCI-H23 lung = tested on: NCI-H23 lung
HOP-62 NSCLC = tested on: HOP-62 NSCLC
HCT-116 colon = tested on: HCT-116 colon
IGROV1 ovarian = tested on: IGROV1 ovarian
PC-3 prostate = tested on: PC-3 prostate
UACC-62 melanoma = tested on: UACC-62 melanoma
RPMI-8226 leukemia = tested on: RPMI-8226 leukemia
RXF 393 renal = tested on: RXF 393 renal
MCF7 breast = tested on: MCF7 breast
M14 melanoma = tested on: M14 melanoma
NCI/ADR-RES ovarian = tested on: NCI/ADR-RES ovarian
SK-OV-3 ovarian = tested on: SK-OV-3 ovarian
COLO 205 colon = tested on: COLO 205 colon
LOX IMVI melanoma = tested on: LOX IMVI melanoma
OVCAR-3 ovarian = tested on: OVCAR-3 ovarian
CAKI-1 renal = tested on: CAKI-1 renal
MOLT-4 leukemia = tested on: MOLT-4 leukemia
HS 578T breast = tested on: HS 578T breast
SF-295 CNS = tested on: SF-295 CNS
DU-145 prostate = tested on: DU-145 prostate
T-47D breast = tested on: T-47D breast
TK-10 renal = tested on: TK-10 renal
A549 NSCLC = tested on: A549 NSCLC
NCI-H226 lung = tested on: NCI-H226 lung
SNB-75 CNS = tested on: SNB-75 CNS
EKVX NSCLC = tested on: EKVX NSCLC
SF-268 CNS = tested on: SF-268 CNS
MDA-MB-435 = tested on: MDA-MB-435
A498 renal = tested on: A498 renal
SN12C renal = tested on: SN12C renal
HL-60(TB) leukemia = tested on: HL-60(TB) leukemia
OVCAR-8 ovarian = tested on: OVCAR-8 ovarian
UACC-257 melanoma = tested on: UACC-257 melanoma
HCT-15 colon = tested on: HCT-15 colon
OVCAR-4 ovarian = tested on: OVCAR-4 ovarian
SR leukemia = tested on: SR leukemia
SK-MEL-2 melanoma = tested on: SK-MEL-2 melanoma
OVCAR-5 ovarian = tested on: OVCAR-5 ovarian
UO-31 renal = tested on: UO-31 renal
SNB-19 CNS = tested on: SNB-19 CNS
786-0 renal = tested on: 786-0 renal
K-562 leukemia = tested on: K-562 leukemia
NCI-H460 lung = tested on: NCI-H460 lung

**Q.** What does the source list for Clc1ccc2c(c1)C(Br)c1cc(Cl)cc(Cl)c1-2 (centres undefined)?
**A.** GI50 (KM12 colon): > 100 µM; TGI (KM12 colon): > 100 µM; GI50 (HOP-92 NSCLC): 12.4 µM; TGI (HOP-92 NSCLC): > 100 µM; GI50 (HT29 colon): > 100 µM; TGI (HT29 colon): > 100 µM; GI50 (SK-MEL-5 melanoma): 6.81 µM; TGI (SK-MEL-5 melanoma): 72.3 µM; GI50 (HCC-2998 colon): > 100 µM; TGI (HCC-2998 colon): > 100 µM; GI50 (MALME-3M melanoma): 3.49 µM; TGI (MALME-3M melanoma): > 100 µM; GI50 (SW-620 colon): 5.46 µM; TGI (SW-620 colon): > 100 µM; GI50 (ACHN renal): > 100 µM; TGI (ACHN renal): > 100 µM; GI50 (BT-549 breast): 3.56 µM; TGI (BT-549 breast): 41.6 µM; GI50 (MDA-MB-231 breast): 30.8 µM; TGI (MDA-MB-231 breast): > 100 µM; GI50 (U251 CNS): > 100 µM; TGI (U251 CNS): > 100 µM; GI50 (SK-MEL-28 melanoma): > 100 µM; TGI (SK-MEL-28 melanoma): > 100 µM; GI50 (NCI-H522 lung): 2.53 µM; TGI (NCI-H522 lung): > 100 µM; GI50 (SF-539 CNS): 82.5 µM; TGI (SF-539 CNS): > 100 µM; GI50 (NCI-H23 lung): 2.83 µM; TGI (NCI-H23 lung): 36.8 µM; GI50 (HOP-62 NSCLC): > 100 µM; TGI (HOP-62 NSCLC): > 100 µM; GI50 (HCT-116 colon): 8.74 µM; TGI (HCT-116 colon): > 100 µM; GI50 (IGROV1 ovarian): 18.6 µM; TGI (IGROV1 ovarian): > 100 µM; GI50 (PC-3 prostate): > 100 µM; TGI (PC-3 prostate): > 100 µM; GI50 (UACC-62 melanoma): 39.9 µM; TGI (UACC-62 melanoma): > 100 µM; GI50 (RPMI-8226 leukemia): 38.9 µM; TGI (RPMI-8226 leukemia): > 100 µM; GI50 (RXF 393 renal): 27 µM; TGI (RXF 393 renal): 86.6 µM; GI50 (MCF7 breast): 20.5 µM; TGI (MCF7 breast): > 100 µM; GI50 (M14 melanoma): 3.35 µM; TGI (M14 melanoma): 35.7 µM; GI50 (NCI/ADR-RES ovarian): 42.7 µM; TGI (NCI/ADR-RES ovarian): > 100 µM; GI50 (SK-OV-3 ovarian): > 100 µM; TGI (SK-OV-3 ovarian): > 100 µM; GI50 (COLO 205 colon): > 100 µM; TGI (COLO 205 colon): > 100 µM; GI50 (LOX IMVI melanoma): 2.46 µM; TGI (LOX IMVI melanoma): > 100 µM; GI50 (OVCAR-3 ovarian): > 100 µM; TGI (OVCAR-3 ovarian): > 100 µM; GI50 (CAKI-1 renal): 56.4 µM; TGI (CAKI-1 renal): > 100 µM; GI50 (MOLT-4 leukemia): 10.8 µM; TGI (MOLT-4 leukemia): > 100 µM; GI50 (HS 578T breast): > 100 µM; TGI (HS 578T breast): > 100 µM; GI50 (SF-295 CNS): > 100 µM; TGI (SF-295 CNS): > 100 µM; GI50 (DU-145 prostate): > 100 µM; TGI (DU-145 prostate): > 100 µM; GI50 (T-47D breast): > 100 µM; TGI (T-47D breast): > 100 µM; GI50 (TK-10 renal): > 100 µM; TGI (TK-10 renal): > 100 µM; GI50 (A549 NSCLC): > 100 µM; TGI (A549 NSCLC): > 100 µM; GI50 (NCI-H226 lung): 2.75 µM; TGI (NCI-H226 lung): 34.8 µM; GI50 (SNB-75 CNS): 19 µM; TGI (SNB-75 CNS): > 100 µM; GI50 (EKVX NSCLC): 2.82 µM; TGI (EKVX NSCLC): > 100 µM; GI50 (SF-268 CNS): 29.9 µM; TGI (SF-268 CNS): > 100 µM; GI50 (MDA-MB-435): 5.19 µM; TGI (MDA-MB-435): > 100 µM; GI50 (A498 renal): > 100 µM; TGI (A498 renal): > 100 µM; GI50 (SN12C renal): 3.84 µM; TGI (SN12C renal): > 100 µM; GI50 (HL-60(TB) leukemia): > 100 µM; TGI (HL-60(TB) leukemia): > 100 µM; GI50 (OVCAR-8 ovarian): 28.6 µM; TGI (OVCAR-8 ovarian): > 100 µM; GI50 (UACC-257 melanoma): > 100 µM; TGI (UACC-257 melanoma): > 100 µM; GI50 (HCT-15 colon): 74.5 µM; TGI (HCT-15 colon): > 100 µM; GI50 (OVCAR-4 ovarian): 71.5 µM; TGI (OVCAR-4 ovarian): > 100 µM; GI50 (SR leukemia): 4.34 µM; TGI (SR leukemia): > 100 µM; GI50 (SK-MEL-2 melanoma): 33.8 µM; TGI (SK-MEL-2 melanoma): > 100 µM; GI50 (OVCAR-5 ovarian): > 100 µM; TGI (OVCAR-5 ovarian): > 100 µM; GI50 (UO-31 renal): 67.7 µM; TGI (UO-31 renal): > 100 µM; GI50 (SNB-19 CNS): > 100 µM; TGI (SNB-19 CNS): > 100 µM; GI50 (786-0 renal): > 100 µM; TGI (786-0 renal): > 100 µM; GI50 (K-562 leukemia): 8.74 µM; TGI (K-562 leukemia): > 100 µM; GI50 (NCI-H460 lung): > 100 µM; TGI (NCI-H460 lung): > 100 µM
